Measured values: ChEMBL document CHEMBL1126361, “A mechanism-based inactivator of E. coli -hydroxydecanoyl thiolester dehydrase designed to crosslink active site amino acids” (Bioorg Med Chem Lett, 1992)

Test system: Escherichia coli
Assay: Evaluation of Beta decanoyl thioester dehydrase inactivation for the compound was determined as percent enzyme activity remaining
Design: concentration or dose not given beside the values

| SMILES | Activity |
| --- | --- |
| CCCCCCCCCC(=O)C=[N+]=[N-] | 97% |
| CCCCCCC#CCC(=O)CCl | 0% |
| CCCCCCCCCC(=O)CBr | 89% |
| CCCCCC/C=C/CC(=O)C=[N+]=[N-] | 100% |
| CCCCCCCCCC(=O)CCl | 99% |
| CCCCCC/C=C/CC(=O)CCl | 100% |
| CCCCCCC=C=CC(=O)C=[N+]=[N-] | 0% |
| CCCCCCC#CCC(=O)C=[N+]=[N-] | 0% |
